In patent US20110152501A1, “Activatable Imaging Probes” (THE GENERAL HOSPITAL CORPORATION, priority 2001, published 2011):
Each block holds one compound with its values, some of them ahead of it. Non-standard residues stand in square brackets, D forms with d. Primed or numbered codes have the meaning given here. No end group written: not given here. *: point of attachment. FITC = O=C1OC2(c3ccc(O)cc3Oc3cc(O)ccc32)c2ccc(NC(=S)*)cc21; Pip′ = not defined here

Columns and labels:
Assay type in all cases: biochemical
[1] = molecular target: T1, MMP-2 (Homo sapiens, UniProt P08253); experiment: Inhibition of MMP-2 mediated probe activation by inhibitors; settings: 1 mM
T1 construct: purchased Boehringer-Mannheim, Ind
T1 sequence (P08253 110-660): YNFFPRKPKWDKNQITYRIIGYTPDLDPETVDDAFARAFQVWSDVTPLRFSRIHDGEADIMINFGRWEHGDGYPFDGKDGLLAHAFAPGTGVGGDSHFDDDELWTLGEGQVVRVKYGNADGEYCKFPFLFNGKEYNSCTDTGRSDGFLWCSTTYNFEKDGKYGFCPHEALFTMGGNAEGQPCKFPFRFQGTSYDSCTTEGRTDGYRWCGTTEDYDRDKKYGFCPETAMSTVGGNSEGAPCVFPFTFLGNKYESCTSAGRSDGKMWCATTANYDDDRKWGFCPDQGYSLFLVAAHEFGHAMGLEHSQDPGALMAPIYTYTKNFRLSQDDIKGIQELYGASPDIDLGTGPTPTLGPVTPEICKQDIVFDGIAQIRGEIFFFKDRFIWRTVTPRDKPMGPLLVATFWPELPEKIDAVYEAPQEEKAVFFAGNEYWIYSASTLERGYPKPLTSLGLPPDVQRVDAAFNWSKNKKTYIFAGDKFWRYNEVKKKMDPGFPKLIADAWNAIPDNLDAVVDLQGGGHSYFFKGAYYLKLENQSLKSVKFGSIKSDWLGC
Description: Using 5 U of MMP-2 and 19 pmol of imaging probe, we performed a dose response study of mediated MMP inhibition up to 0.1 mM of inhibitor.
To determine the range of enzyme activation, a constant amount of imaging probe (26.6 pmol) was incubated with variable amounts of activated MMP-2 and fluorescence was determined after 24 hours. Inhibition experiments were performed by incubating 1 U of purified, activated MMP-2 with 19 pmol NIRF probe (220 pmol Cy 5.5) in the presence of different inhibitors, 1.10 phenanthroline (1 mM, Aldrich, Milwaukee, Wis.), a Zinc chelator, or a direct MMP-2 inhibitor.

[2] = molecular target: T2, purified thrombin (Homo sapiens, UniProt P00734); experiment: Probe activation with purified thrombin in PBS buffer, NIRF signal over time; settings: thrombin added to solutions containing thrombin probe and hirudin, compared to hirudin-free solutions
T2 construct: tested with purified thrombin in PBS buffer
Description: The prepared probes were first tested with purified thrombin in PBS buffer as the NIRF signal was recorded over time. […] Following addition of thrombin, NIRF signal increased from 150 AU to 4100 AU within 20 minutes (27 fold increase). […] There was a clear dose response when the probe was incubated with different amounts of thrombin.

[3] = molecular target: T1, MMP-2; experiment: HPLC analysis of peptide substrates after incubation with MMP-2
Description: The synthesized probes contain a preferential MMP-2 peptide substrate. Two different peptide substrates were used in this study, an MMP-2 cleavable peptide ([…](FITC)C-NH2 (SEQ ID NO:10) (substrate sites are italicized)) and a scrambled control peptide. […] Although the latter control probe has a GVR leader sequence, it is too short to be recognized by MMP-2.
Characterization of probe. A number of experiments were conducted to characterize the peptide substrate and imaging probes. Initially we performed HPLC analysis of peptide and control substrates prior to and after incubation with 1 U of MMP-2. One unit is the activity that hydrolyzes 1 μg of type IV collagen within 1 hour using a commercially available assay (gelatinase 72 kD, Boehringer Mannheim, Indianapolis, Ind.). Reverse phase HPLC (Brownlee, Spheri-5, ODS, 30×4.6 mm), using 0.1% TFA and acetonitrile as elution buffers was performed (Rainin Instruments, Woburn, Mass.). […] The control probe contained the scrambled peptide. To determine the range of enzyme activation, a constant amount of imaging probe (26.6 pmol) was incubated with variable amounts of activated MMP-2 and fluorescence was determined after 24 hours. […]

[4] = molecular target: T3, thrombin (Homo sapiens, UniProt P00734); experiment: Enzymatic assay of peptide cleavage by thrombin (HPLC)
T3 construct: tested with purified thrombin in PBS buffer
From the text: In contrast, there was no cleavage when the serine at P1′ position was replaced by a proline residue.

blocking of fluorescence activation [1]: completely blocked
Compound: c1cnc2c(c1)ccc1cccnc12 [1,10 phenanthroline]

effect on thrombin activation of the thrombin probe [2]: significantly less NIRF signal
Compound: hirudin

cleavage by MMP-2 [3]: cleavage of the former
Compound: Gly-Pro-Leu-Gly-Val-Arg-Gly-Lys(FITC)-Cys-NH2 (GPLGVRGK(FITC)C-NH2; N-terminus assumed; SMILES CC(C)C[C@H](NC(=O)[C@@H]1CCCN1C(=O)CN)C(=O)NCC(=O)N[C@H](C(=O)N[C@@H](CCCNC(=N)N)C(=O)NCC(=O)N[C@@H](CCCCNC(=S)Nc1ccc2c(c1)C(=O)OC21c2ccc(O)cc2Oc2cc(O)ccc21)C(=O)N[C@@H](CS)C(N)=O)C(C)C)

cleavage by thrombin ([4]; HPLC): cleaved into two major products
Compound: Gly-D-Phe-Pip-Arg-Ser-Gly-Gly-Gly-Gly-Lys(FITC)-Cys-NH2 (G[dF][Pip′]RSGGGGK(FITC)C-NH2) [C-terminal extended peptide]

stability against thrombin ([4]; two hours following incubation with thrombin): remained intact
Compound: Gly-D-Phe-Pip-Arg-Pro-Gly-Gly-Gly-Gly-Lys(FITC)-Cys-NH2
